{"source": "ChEMBL document CHEMBL3507680", "about": "“University of Dundee, Gates Library screen for HepG2 cell viability”"}
{"test": "Human HepG2 cell viability assay in 384 well format", "assay_type": "toxicity, cell-based", "design": "dose 125 nL, time 70.5 hour; concentration not given beside the values", "details": "HepG2 cells, read-out: Inhibition", "units": {"cytotoxicity at 70.5 h": "%"}}
{"compound": "CCOCC(=O)N1CC[C@@H]2O[C@@H](C)C[C@H]2C1", "cytotoxicity at 70.5 h": -11.3}
{"compound": "CC(=O)Nc1cnc(-n2ccnc2)nc1", "cytotoxicity at 70.5 h": -1.27}
{"compound": "Cc1nc2c(c(NCCN3CCOCC3)n1)CCN(C)C2", "cytotoxicity at 70.5 h": 32.4}
{"compound": "CC(C)n1ccc(-c2cc(C(=O)N3CCCC3)c3ccccn23)n1", "cytotoxicity at 70.5 h": 39.5}
{"compound": "COCCO[C@H]1CCN(c2ccc(C)nn2)[C@H]1Cc1cccnc1", "cytotoxicity at 70.5 h": 12.5}
{"compound": "CC(C)=CCN1C[C@H]2CC[C@@H]1CN(C(=O)c1ccc3[nH]cnc3c1)C2", "cytotoxicity at 70.5 h": 3.14}
{"compound": "COc1ccc(CNC(=O)NCc2ccc(C)cc2)cn1", "cytotoxicity at 70.5 h": -7.46}
{"compound": "O=C(C1CCCO1)N1C[C@@H]2CCN(c3cnccn3)C[C@@H]2C1", "note": "(some centres not stated)", "cytotoxicity at 70.5 h": -9.71}
{"compound": "COc1cccc([C@H]2CN(C(=O)c3scc4c3CCCC4)C[C@@H]2N)c1", "cytotoxicity at 70.5 h": -12}
{"compound": "Cc1nccn1C1CCCN(C(=O)COCC(F)(F)F)C1", "note": "(configuration not stated)", "cytotoxicity at 70.5 h": -7.9}
{"compound": "COc1cccc(OCC(=O)Nc2cc(C)cnc2OC)c1", "cytotoxicity at 70.5 h": 2.85}
{"compound": "CCOCC(O)CN1CCN(C(=O)Cc2ccc3c(c2)CCO3)CC1", "note": "(configuration not stated)", "cytotoxicity at 70.5 h": 0.715}
{"compound": "NC(=O)NCC1CCCCN1C(=O)c1cccc(C(F)(F)F)c1", "note": "(configuration not stated)", "cytotoxicity at 70.5 h": -3.78}
{"compound": "CN1CCN(Cc2nc3ccccc3[nH]2)[C@H]2CS(=O)(=O)C[C@H]21", "cytotoxicity at 70.5 h": -10.2}
{"compound": "COCCO[C@H]1CCN(C(=O)c2ccco2)[C@H]1Cc1cnn(C)c1", "cytotoxicity at 70.5 h": -90.2}
{"compound": "CCc1ccc(CN(Cc2ccco2)C(C)C(C)C)nc1", "note": "(configuration not stated)", "cytotoxicity at 70.5 h": 1.59}
{"compound": "Cc1cc(N2CCCC2c2nccnc2C)ncn1", "note": "(configuration not stated)", "cytotoxicity at 70.5 h": -5.86}
{"compound": "COCC(=O)N1CCCCC1c1nc(C)c2c(n1)N(C1CC1)C(=O)CC2", "note": "(configuration not stated)", "cytotoxicity at 70.5 h": -3.68}
{"compound": "Cn1cc(-c2cnc(N3CCOCC3)nc2)cc1C(=O)NCCO", "cytotoxicity at 70.5 h": -6.33}
{"compound": "Cc1cc(N2Cc3cnn(CCO)c3C2)nc(-c2ccccc2)n1", "cytotoxicity at 70.5 h": -11.9}
{"compound": "c1coc(-c2noc(CN3CC(n4cccn4)C3)n2)c1", "cytotoxicity at 70.5 h": -7.3}
{"compound": "O=S(=O)(CCN1CCN(c2ccccc2O)CC1)c1ccc(Cl)cc1", "cytotoxicity at 70.5 h": -14.3}
{"compound": "CCO[C@H]1CO[C@@]2(CCCN(Cc3scnc3C)C2)C1", "cytotoxicity at 70.5 h": 14.7}
{"compound": "CCN(CCn1cccn1)Cc1nc(-c2ccc(F)cc2)oc1C", "cytotoxicity at 70.5 h": -6.91}
{"compound": "CC(C)c1nnc(CN2CCCC2C(=O)OCc2ccccc2)o1", "note": "(configuration not stated)", "cytotoxicity at 70.5 h": -10.4}
{"compound": "O=C(NCCOCCO)c1cnc(-c2ccccc2)nc1O", "cytotoxicity at 70.5 h": -7.84}
{"compound": "COCCN1C(=O)[C@H]2CC[C@@H]1CN(c1nccc(C3CCCC3)n1)C2", "cytotoxicity at 70.5 h": -4.32}
{"compound": "CC(NC(=O)NCc1cscn1)c1ccc(N2CCOCC2)cc1", "note": "(configuration not stated)", "cytotoxicity at 70.5 h": -0.548}
{"compound": "CC(NC(=O)Cc1cccs1)c1nnc2n1CCCCC2", "note": "(configuration not stated)", "cytotoxicity at 70.5 h": -23.9}
{"compound": "O=c1c2c(ncn1CCCO)nc1n2CCC1", "cytotoxicity at 70.5 h": -1.36}
{"compound": "O=C(CCCNC(=O)c1cnccn1)Nc1ncc[nH]1", "cytotoxicity at 70.5 h": -27.2}
{"compound": "COc1ccc([C@@H]2CN(Cc3cccnc3N)C[C@H]2N(C)C)cc1", "cytotoxicity at 70.5 h": -2.88}
{"compound": "OCCOCCN1CCCC1c1nc2cc(F)ccc2[nH]1", "note": "(configuration not stated)", "cytotoxicity at 70.5 h": 12}
{"compound": "CC(C)c1ccc(CN2CCN(C(=O)c3cc(C4CC4)[nH]n3)CC2)cc1", "cytotoxicity at 70.5 h": 44.7}
{"compound": "CN(C)Cc1ccnc(C2CCCN2Cc2cccc(F)c2F)n1", "note": "(configuration not stated)", "cytotoxicity at 70.5 h": -2.17}
{"compound": "CCN1CCC(CC(=O)NC[C@H]2CCc3ccccc3O2)CC1", "cytotoxicity at 70.5 h": -8.77}
{"compound": "CC(=O)c1cn(CCC(=O)N[C@@H](CC(C)C)C(=O)O)c2ccccc12", "cytotoxicity at 70.5 h": -7.76}
{"compound": "Cc1ccccc1C(CC(=O)N1CCc2sccc2C1)NC(N)=O", "note": "(configuration not stated)", "cytotoxicity at 70.5 h": -21.9}
{"compound": "OCCn1nccc1C1CCN(CCOc2ccccc2)CC1", "cytotoxicity at 70.5 h": 8.03}
{"compound": "Cc1cc(C)cc(C(C)NC(=O)c2ccc(CS(C)(=O)=O)o2)c1", "note": "(configuration not stated)", "cytotoxicity at 70.5 h": -3.42}
{"compound": "CCCC(=O)N1CCN(CC(O)COCC)CC1", "note": "(configuration not stated)", "cytotoxicity at 70.5 h": 1.27}
{"compound": "Cc1csc(CN2C[C@H](NC(=O)C3CCOCC3)[C@@H](C(C)C)C2)n1", "cytotoxicity at 70.5 h": -10.9}
{"compound": "Cc1ccc(CNC(=O)c2cc(NC(=O)C3CC3)n(C)n2)o1", "cytotoxicity at 70.5 h": -7.15}
{"compound": "COCC(=O)N1CC[C@H]2OCC[C@@]2(c2nc(C)no2)C1", "cytotoxicity at 70.5 h": 12.4}
{"compound": "Cc1nn(C)c(N(C)C)c1CNCc1cccc(Br)c1", "cytotoxicity at 70.5 h": -5.91}
{"compound": "Cc1nc(C2CCCN2CC(=O)Nc2cc(C(C)(C)C)nn2C)no1", "note": "(configuration not stated)", "cytotoxicity at 70.5 h": -6.05}
{"compound": "CCC(C(=O)NCC1=CCN(C)CC1)c1ccccc1", "note": "(configuration not stated)", "cytotoxicity at 70.5 h": 30}
{"compound": "CC(C)OC(=O)CCNC(=O)Nc1cccc2ncccc12", "cytotoxicity at 70.5 h": 8.18}
{"compound": "CNS(=O)(=O)c1ccc(CN(C)Cc2nc3ccc(F)cc3[nH]2)cc1", "cytotoxicity at 70.5 h": -4.95}
{"compound": "N#Cc1cccc(OCCN2CCNC(=O)C2c2cccs2)c1", "note": "(configuration not stated)", "cytotoxicity at 70.5 h": -6}
{"compound": "CC(C)(C)OC(=O)N1CCN(c2nnc(Br)s2)CC1", "cytotoxicity at 70.5 h": 18.7}
{"compound": "Cn1cc(C(=O)NCc2cn3c(n2)CN(CC2CCOC2)CC3)cn1", "note": "(configuration not stated)", "cytotoxicity at 70.5 h": -110}
{"compound": "Cc1nccc(C(=O)NC(COCC(C)C)c2ccco2)n1", "note": "(configuration not stated)", "cytotoxicity at 70.5 h": 19.4}
{"compound": "Fc1ccc(CCC2CCCN(Cc3c[nH]cn3)C2)c(F)c1", "note": "(configuration not stated)", "cytotoxicity at 70.5 h": -3.29}
{"compound": "Cc1cc(F)ccc1CNCCn1cccn1", "cytotoxicity at 70.5 h": -1.75}
{"compound": "O=C(CC1CC1)N1CCN(Cc2cccnc2)c2ncccc2C1", "cytotoxicity at 70.5 h": -9.33}
{"compound": "O=C(O)c1cc(S(=O)(=O)Nc2ccc(F)cc2F)cc2c1OCCO2", "cytotoxicity at 70.5 h": -2.86}
{"compound": "N#Cc1cccc(C(=O)N2CCN(c3ncccn3)CC2)c1", "cytotoxicity at 70.5 h": 14.3}
{"compound": "Cc1ccc(S(=O)(=O)N[C@H](CO)C(C)C)cc1N(C)C", "cytotoxicity at 70.5 h": -4.66}
{"compound": "Cn1cccc1C(=O)N1CCc2ncnc(C3CC3)c2CC1", "cytotoxicity at 70.5 h": -0.695}
{"compound": "CS(=O)(=O)CC(=O)N1C[C@H]2CCC[C@@]2(COCc2ccccn2)C1", "cytotoxicity at 70.5 h": -19.8}
{"compound": "Cc1ccccc1N1CCN(c2ccncn2)C(C)C1", "note": "(configuration not stated)", "cytotoxicity at 70.5 h": -2.86}
{"compound": "CC/C=C(\\C)CN1CCC(CNC(=O)c2c[nH]c(=O)c(Cl)c2)C1", "note": "(configuration not stated)", "cytotoxicity at 70.5 h": 12.8}
{"compound": "Cc1cccc(CN2C[C@@H]3COC[C@]3(CNC(=O)N3CCCC3)C2)n1", "cytotoxicity at 70.5 h": 0.0201}
{"compound": "CCOc1cc(/C=C/c2ncc(C(=O)O)s2)ccc1O", "cytotoxicity at 70.5 h": 0.103}
{"compound": "COc1c(C2CCCN2C(=O)c2ccnc(N(C)C)c2)c(C)nn1C", "note": "(configuration not stated)", "cytotoxicity at 70.5 h": -6.74}
{"compound": "CS(=O)(=O)c1ccc(OCCNCc2ccc(F)cc2F)cc1", "cytotoxicity at 70.5 h": 0.183}
{"compound": "CCOCCNS(=O)(=O)c1cc(C)c2nc(O)cc(C)c2c1", "cytotoxicity at 70.5 h": 21}
{"compound": "CCCn1cc(NC2CCSCC2)cn1", "cytotoxicity at 70.5 h": 2.92}
{"compound": "NC(=O)c1ccc(N2CCCCC2)c(NC(=O)c2ccc(F)cc2F)c1", "cytotoxicity at 70.5 h": 3.5}
{"compound": "CN(C)c1ncnc2c1CCN(Cc1nccs1)CC2", "cytotoxicity at 70.5 h": -6.81}
{"compound": "Cc1cc(N2CCC(O)CC2)nc(C2CCCN2C)n1", "note": "(configuration not stated)", "cytotoxicity at 70.5 h": -5.82}
{"compound": "Fc1cnc(N2CCO[C@H]3CN(CC4CCOC4)C[C@H]32)nc1", "note": "(some centres not stated)", "cytotoxicity at 70.5 h": 26.2}
{"compound": "COCCN1CCC(CNC(=O)C2(c3ccc(F)cc3)CCC2)CC1", "cytotoxicity at 70.5 h": -0.878}
{"compound": "Cn1nccc1C(=O)Nc1cc(C(F)(F)F)c[nH]c1=O", "cytotoxicity at 70.5 h": -6.13}
{"compound": "CCC1COCCN1C(=O)NCc1nccn1Cc1ccccc1", "note": "(configuration not stated)", "cytotoxicity at 70.5 h": -2.58}
{"compound": "CCOCC(=O)N1CC[C@H]2OCC[C@@H](c3nnc(C)o3)[C@H]2C1", "cytotoxicity at 70.5 h": 0.355}
{"compound": "CCn1cc(CNCCNc2ncc(Cl)cc2Cl)cn1", "cytotoxicity at 70.5 h": 10.4}
{"compound": "O=C(OCc1ccccc1)c1cccc(NC(=O)C2COCCO2)c1", "note": "(configuration not stated)", "cytotoxicity at 70.5 h": 1.04}
{"compound": "COCC1CN(C(=O)c2ccc(C)o2)Cc2nccn2C1", "note": "(configuration not stated)", "cytotoxicity at 70.5 h": 14.4}
{"compound": "CC1CN(CC(=O)N2CCOCC2)CCN1Cc1nccn1C", "note": "(configuration not stated)", "cytotoxicity at 70.5 h": -2.16}
{"compound": "O=C(NCCN1CCCCC1)c1nc2ccccc2c(=O)[nH]1", "cytotoxicity at 70.5 h": 4.35}
